From patent US20170232083A1, “METHODS OF DIAGNOSIS AND TREATMENT OF CELIAC DISEASE IN CHILDREN” (priority 2014, published 2017)

Tested on: PBMC (polyclonal gluten-specific T cells) of paediatric and adult CD patients
Assay: IFN-γ ELISpot of PBMC after 3 day oral wheat challenge (SFU, % of maximal peptide response, dominance scores, EC50; Examples 5-6)
Type: cell-based, human
Details: for IFN-γ ELISpot response: after oral wheat challenge

**Q.** For LQPFPQPELPYSQP, which “IFN-γ ELISpot response” value (patient A, 11-17 yrs, cut-off 10 SFU) is on record?
**A.** 3 SFU

**Q.** And the “IFN-γ ELISpot response” value (patient E, H, 11-17 yrs, cut-off 10 SFU)?
**A.** 104 SFU

**Q.** And the “Significant response as percentage of maximal peptide SFU” value (“Significant response as percentage” for short) (patient E, max peptide 224 SFU)?
**A.** ′′′ (41-70% = ′′′)

**Q.** What about the “IFN-γ ELISpot response” value (patient F, 11-17 yrs, cut-off 10 SFU) of the same sequence?
**A.** 81 SFU

**Q.** And the “Significant response as percentage” value (patient F, max peptide 178 SFU)?
**A.** ′′′ (41-70% = ′′′)

**Q.** And the “IFN-γ ELISpot response” value (patient G, 11-17 yrs, cut-off 10 SFU)?
**A.** 5 SFU

**Q.** And the “IFN-γ ELISpot response” value (patient H (HLA-DQ2.5 homozygote), 3-5yrs, cut-off 10 SFU)?
**A.** 36 SFU

**Q.** What about the “IFN-γ ELISpot response” value (patient H, 11-17 yrs, cut-off 10 SFU) of the same sequence?
**A.** 15 SFU

**Q.** What about the “Significant response as percentage” value (patient H, max peptide 17 SFU) of the same sequence?
**A.** + (>70% = +)

**Q.** And the “IFN-γ ELISpot response” value (patient ID not given, 11-17 yrs, cut-off 10 SFU)?
**A.** 53 SFU

**Q.** What about the “Significant response as percentage” value (patient ID not given, max peptide 95 SFU) of the same sequence?
**A.** ′′′ (41-70% = ′′′)

**Q.** What about the “Significant response as percentage” value (patient II, max peptide 15 SFU) of the same sequence?
**A.** + (>70% = +)

**Q.** What about the “Significant response as percentage” value (patient J, max peptide 196 SFU) of the same sequence?
**A.** ′′ (21-40% = ′′)

**Q.** And the “Significant response as percentage” value (patient M, max peptide 48 SFU)?
**A.** + (>70% = +)

**Q.** And the “IFN-γ ELISpot response” value (patient N, 3-5yrs, cut-off 10 SFU)?
**A.** 3 SFU

**Q.** What about the “IFN-γ ELISpot response” value (patient P, 11-17 yrs, cut-off 21.6 SFU) of the same sequence?
**A.** 37 SFU

**Q.** What about the “Significant response as percentage” value (patient P, max peptide 64 SFU) of the same sequence?
**A.** ′′′ (41-70% = ′′′)

**Q.** What about the “IFN-γ ELISpot response” value (patient Q, 11-17 yrs, cut-off 10 SFU) of the same sequence?
**A.** 29 SFU

**Q.** And the “Significant response as percentage” value (patient Q, max peptide 97 SFU)?
**A.** ′′ (21-40% = ′′)

**Q.** And the “IFN-γ ELISpot response” value (patient U, H, 11-17 yrs, cut-off 10 SFU)?
**A.** 25 SFU

**Q.** And the “Significant response as percentage” value (patient U, max peptide 81 SFU)?
**A.** ′′ (21-40% = ′′)

**Q.** And the “IFN-γ ELISpot response” value (patient V, 6-10 yrs, cut-off 10 SFU)?
**A.** 19 SFU

**Q.** And the “Significant response as percentage” value (patient V, max peptide 35 SFU)?
**A.** ′′′ (41-70% = ′′′)

**Q.** And the “IFN-γ ELISpot response” value (patient Y, 6-10 yrs, cut-off 10 SFU)?
**A.** 12 SFU

**Q.** And the “Significant response as percentage” value (patient Y, max peptide 16 SFU)?
**A.** + (>70% = +)

**Q.** And the “IFN-γ ELISpot response” value (patient eleven, 6-10 yrs, cut-off 10 SFU)?
**A.** 39 SFU

**Q.** What about the “Significant response as percentage” value (patient eleven, max peptide 57 SFU) of the same sequence?
**A.** ′′′ (41-70% = ′′′)

**Q.** And the “Significant response as percentage” value (patient five, max peptide 48 SFU)?
**A.** ′′′ (41-70% = ′′′)

**Q.** And the “IFN-γ ELISpot response” value (patient four, 3-5yrs, cut-off 10 SFU)?
**A.** 22 SFU

**Q.** And the “Significant response as percentage” value (patient four, max peptide 44 SFU)?
**A.** ′′′ (41-70% = ′′′)

**Q.** What about the “IFN-γ ELISpot response” value (patient seven, 6-10 yrs, cut-off 10.5 SFU) of the same sequence?
**A.** 6 SFU

**Q.** What about the “IFN-γ ELISpot response” value (patient ten, 3-5yrs, cut-off 10 SFU) of the same sequence?
**A.** 11 SFU

**Q.** What about the “Significant response as percentage” value (patient ten, max peptide 14.5 SFU) of the same sequence?
**A.** + (>70% = +)

**Q.** What about the “IFN-γ ELISpot response” value (patient three, 6-10 yrs, cut-off 10.5 SFU) of the same sequence?
**A.** 71 SFU

**Q.** And the “IFN-γ ELISpot response” value (patient twelve, 11-17 yrs, cut-off 10 SFU)?
**A.** 6 SFU

**Q.** What about the “IFN-γ ELISpot response” value (patient two, 3-5yrs, cut-off 10 SFU) of the same sequence?
**A.** 13 SFU

**Q.** What about the “Significant response as percentage” value (patient two, max peptide 60 SFU) of the same sequence?
**A.** ′ (11-20% = ′)
